In patent publication US7531320B2, “Modulation of β-catenin/TCF-activated transcription” (priority 2003, dated 2009):

Tested on: fra-1
Assay: Real Time RT-PCR in SW480 cells, fra-1
Type: cell-based, human
Conditions: 25 μM; for ΔCT fra-1: relative to β-actin
Method: The RNeasy Midi Kit (Qiagen) was used for RNA extraction and Real Time RT-PCR was performed according to the protocol provided with the SYBR Green PCR Master Mix Kit (Perkin Elmer Biosystems, Shelton, Conn.). The primers used for cyclin D1, axin2, hnkd, c-myc, c-jun, and fra-1 amplifications were: cyclin D1 forward primer:5′-[…]-CCTGCTG-3′ (SEQ ID NO: 32) reverse primer: 5′-[…]-3′ (SEQ ID NO: 33) leading to a product size of approximately 300 bp; axin2 forward primer: 5′-[…] GGAAA-CT-3′ (SEQ ID NO: 34) and reverse primer: 5′-[…]-GAGA-3′ (SEQ ID NO: 35); hnkd forward primer: 5′-[…] TTGCGT-3′ (SEQ ID NO: 36) and the reverse primer: 5′-[…] ACGT-3′ (SEQ ID NO: 37); c-myc forward primer: 5′-GAA-[…] CTGC-3′ (SEQ ID NO: 38) and reverse primer: 5′-[…]-G-3′ (SEQ ID NO: 39); c-jun forward primer: 5′-[…]-3′ (SEQ ID NO: 40) and reverse primer: 5′-[…]-3′ (SEQ ID NO: 41); fra-1 forward primer: 5′-ACC-[…]-[…]-3′ (SEQ ID NO: 42) and reverse primer: 5′-[…]-TT-3′ (SEQ ID NO: 43). β-actin was used for normalization. […]
1 μg of mRNA, for each time point, was subjected to Real Time RT-PCR. Expression level of endogenous cyclin D1, c-myc, fibronectin, hnkd, axin2, c-jun, and BMP-4 were measured relative to β-actin. Quantitation of The ΔCycle of Threshold (CT) values was determined by subtracting the average values of each set by the corresponding average values obtained for β-actin. […]
The cyclin D1 gene is inappropriately expressed in many different tumor types, and is known to be a direct target of the Wnt/β-catenin pathway (Shtutman et al., “The cyclin D1 gene is a target of the beta-catenin/LEF-1 pathway,” Proc. Natl. Acad. Sci. USA 96:5522-27 (1999); Tetsu et al., “Beta-catenin regulates expression of cyclin D1 in colon carcinoma cells,” Nature 398:422-26 (1999)). […] Expression level of endogenous cyclin D1, c-myc, fibronectin, hnkd, axin2, c-jun, and BMP-4 were measured relative to β-actin. Quantitation of The ΔCycle of Threshold (CT) values was determined by subtracting the average values of each set by the corresponding average values obtained for β-actin. […]

Q: What does the source list for `O=C1C(Cc2ccc(O)cc2)N2C(=O)CCN(C(=O)NCc3ccccc3)C2CN1Cc1cccc2ccccc12` (stereo not drawn) [COMPOUND 1]?
A: mRNA fra-1 (direction): ↑; ΔCT fra-1 (4 hours): −1.0; ΔCT fra-1 (8 hours): −1.4
